Reference: paper PMC12893914 (Nature, 2025)

What was measured:
MOR [1] = biological target: T1, MOR (Mus musculus, UniProt P42866); format: biochemical; details: mouse spinal cord membranes; 100 nM DAMGO pulse loading
MOR [2] = biological target: T1, MOR; format: biochemical; details: mouse spinal cord membranes

T1 sequence (P42866 whole entry): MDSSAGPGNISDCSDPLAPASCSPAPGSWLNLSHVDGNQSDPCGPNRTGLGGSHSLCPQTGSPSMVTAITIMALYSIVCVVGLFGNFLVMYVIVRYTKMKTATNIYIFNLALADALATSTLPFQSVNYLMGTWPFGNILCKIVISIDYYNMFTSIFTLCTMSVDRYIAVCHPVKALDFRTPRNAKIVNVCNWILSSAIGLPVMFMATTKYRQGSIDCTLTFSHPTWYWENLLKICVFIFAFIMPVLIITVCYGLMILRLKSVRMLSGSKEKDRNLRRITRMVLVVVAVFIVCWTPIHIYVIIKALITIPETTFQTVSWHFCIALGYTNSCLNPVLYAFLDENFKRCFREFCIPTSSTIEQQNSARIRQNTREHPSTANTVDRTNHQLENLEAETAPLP

C[C@@H](NC(=O)[C@@H](N)Cc1ccc(O)cc1)C(=O)NCC(=O)N(C)[C@@H](Cc1ccccc1)C(=O)NCCO [DAMGO, [D-Ala2, N-MePhe4, Gly-ol]-enkephalin]
efficacy in ^35S-GTPγS release (MOR [1]): does not reach this plateau | efficacy class in ^35S-GTPγS binding (MOR [2]): full agonists | stimulation of GTPγS binding over baseline (MOR [2]; 10 µM DAMGO): 40% | stimulation of ^35S-GTPγS binding over baseline (MOR [2]; 10 µM DAMGO): 1.4 ± 0.01 fold
